“And” between values parts separate entries of the source, which are not always exact repeats. Equal values may be shown once. Toxic doses and inconclusive results are not listed.
Test system: CD2F1 mice, L1210 leukemia ip, survival T/C
Assay: NCI In Vivo Anticancer Drug Screen. Data for tumor model L1210 Leukemia (intraperitoneal) in CD2F1 (CDF1) mice
Conditions: higher = longer survival
In short: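 Ratio T/C, where T is the treated-group value and C the vehicle-dosed control value, from mice implanted with a transplantable tumor.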

[1] = endpoint: mean survival time, dose: 100.0 mg/kg/injection, schedule: Q01DX009 (ip), vehicle: saline sonified
[2] = endpoint: mean survival time, dose: 200.0 mg/kg/injection, schedule: Q01DX009 (ip), vehicle: saline sonified
[3] = endpoint: mean survival time, dose: 100.0 mg/kg/injection, schedule: Q01DX009 (ip), vehicle: saline with Tween-80
[4] = endpoint: mean survival time, dose: 200.0 mg/kg/injection, schedule: Q01DX009 (ip), vehicle: saline with Tween-80
[5] = endpoint: mean survival time, dose: 400.0 mg/kg/injection, schedule: Q01DX009 (ip), vehicle: saline with Tween-80
[6] = endpoint: mean survival time, dose: 100.0 mg/kg/injection, schedule: Q01DX001 (ip), vehicle: saline with Tween-80
[7] = endpoint: mean survival time, dose: 200.0 mg/kg/injection, schedule: Q01DX001 (ip), vehicle: saline with Tween-80
[8] = endpoint: mean survival time, dose: 400.0 mg/kg/injection, schedule: Q01DX001 (ip), vehicle: saline with Tween-80
[9] = endpoint: mean survival time, dose: 100.0 mg/kg/injection, schedule: Q04DX003 (ip), vehicle: saline with Tween-80
[10] = endpoint: mean survival time, dose: 200.0 mg/kg/injection, schedule: Q04DX003 (ip), vehicle: saline with Tween-80
[11] = endpoint: mean survival time, dose: 400.0 mg/kg/injection, schedule: Q04DX003 (ip), vehicle: saline with Tween-80
[12] = endpoint: mean survival time, dose: 50.0 mg/kg/injection, schedule: Q01DX009 (ip), vehicle: saline
[13] = endpoint: mean survival time, dose: 100.0 mg/kg/injection, schedule: Q01DX009 (ip), vehicle: saline
[14] = endpoint: mean survival time, dose: 200.0 mg/kg/injection, schedule: Q01DX009 (ip), vehicle: saline
[15] = endpoint: mean survival time, dose: 50.0 mg/kg/injection, schedule: Q01DX009 (ip), vehicle: saline with Tween-80
[16] = endpoint: mean survival time, dose: 100.0 mg/kg/injection, schedule: Q04DX003 (ip), vehicle: saline
[17] = endpoint: mean survival time, dose: 200.0 mg/kg/injection, schedule: Q04DX003 (ip), vehicle: saline
[18] = endpoint: mean survival time, dose: 400.0 mg/kg/injection, schedule: Q04DX003 (ip), vehicle: saline

## CCCCCCC[CH2][Sn]([CH2]C)([CH2]C)[O]C(C)=O
endpoint: mean survival time, dose: 0.25 mg/kg/injection, schedule: Q04DX003 (ip), vehicle: saline
  T/C: 106 % of control
endpoint: mean survival time, dose: 0.5 mg/kg/injection, schedule: Q04DX003 (ip), vehicle: saline
  T/C: 101 % of control
endpoint: mean survival time, dose: 0.63 mg/kg/injection, schedule: Q04DX003 (ip), vehicle: saline
  T/C: 93 % of control
endpoint: mean survival time, dose: 1.0 mg/kg/injection, schedule: Q04DX003 (ip), vehicle: saline
  T/C: 103 % of control
endpoint: mean survival time, dose: 1.25 mg/kg/injection, schedule: Q04DX003 (ip), vehicle: saline
  T/C: 102 % of control

## Cc1ccc(S(=O)(=O)F)c(Cl)c1
endpoint: mean survival time, dose: 50.0 mg/kg/injection, schedule: Q01DX009 (ip), vehicle: saline sonified
  T/C: 97 % of control
[1]
  T/C: 97 % of control
[2]
  T/C: 95 % of control

## Cc1cccc(OP(N)(=O)Oc2cccc(C)c2)c1
endpoint: mean survival time, dose: 100.0 mg/kg/injection, schedule: Q04DX002 (ip), vehicle: saline with Tween-80
  T/C: 96 % of control
endpoint: mean survival time, dose: 200.0 mg/kg/injection, schedule: Q04DX002 (ip), vehicle: saline with Tween-80
  T/C: 96 % of control
endpoint: mean survival time, dose: 400.0 mg/kg/injection, schedule: Q04DX002 (ip), vehicle: saline with Tween-80
  T/C: 96 % of control

## CCCCOC(=O)C(C(=O)OCCCC)(C(=O)OCCCC)C(C(=O)OCCCC)(C(=O)OCCCC)C(=O)OCCCC
endpoint: mean survival time, dose: 100.0 mg/kg/injection, schedule: Q01DX001 (ip), vehicle: saline
  T/C: 90 % of control
endpoint: mean survival time, dose: 400.0 mg/kg/injection, schedule: Q01DX001 (ip), vehicle: saline
  T/C: 96 % of control

## CCOC(=O)CC(=O)c1c(C)cc(C)cc1C
[3]
  T/C: 89 % of control
[4]
  T/C: 96 % of control
[5]
  T/C: 107 % of control

## CC(C)(C)C#C/C(=N\Nc1ccc([N+](=O)[O-])cc1[N+](=O)[O-])c1ccccc1
[6]
  T/C: 94 % of control
[7]
  T/C: 89 % of control
[8]
  T/C: 86 % of control

## BrC1=CC2C3C=CC(c4ccccc43)C12 (stereo unspecified)
[9]
  T/C: 95 % of control
[10]
  T/C: 95 % of control
[11]
  T/C: 96 % of control

## COCCCN=C(N)N
[12]
  T/C: 102 % of control
[13]
  T/C: 105 % of control
[14]
  T/C: 96 % of control

## CC1(C)CC([NH-])(C(=O)O)CC(C)(C)N1O.CC1(C)CC([NH-])(C(=O)O)CC(C)(C)N1O.[Zn+2]
endpoint: mean survival time, dose: 12.5 mg/kg/injection, schedule: Q01DX009 (ip), vehicle: saline with Tween-80
  T/C: 96 % of control
endpoint: mean survival time, dose: 25.0 mg/kg/injection, schedule: Q01DX009 (ip), vehicle: saline with Tween-80
  T/C: 96 % of control
[15]
  T/C: 96 % of control
[3]
  T/C: 93 % of control

## FC(F)(F)c1nc2nccnc2[nH]1
[12]
  T/C: 95 % of control
[13]
  T/C: 91 % of control
[14]
  T/C: 93 % of control

## N#C/C(=C\c1ccc([N+](=O)[O-])o1)[N+](=O)[O-]
endpoint: mean survival time, dose: 25.0 mg/kg/injection, schedule: Q04DX003 (ip), vehicle: saline with Tween-80
  T/C: 104 % of control
endpoint: mean survival time, dose: 50.0 mg/kg/injection, schedule: Q04DX003 (ip), vehicle: saline with Tween-80
  T/C: 94 % of control
[9]
  T/C: 97 % of control

## Cc1cc(C)c(C(=O)C2Oc3ccccc3C2c2ccccc2)c(C)c1 (stereo unspecified)
[3]
  T/C: 95 % of control
[9]
  T/C: 100 % of control
[4]
  T/C: 97 % of control
[10]
  T/C: 102 % of control
[5]
  T/C: 91 % of control
[11]
  T/C: 100 % of control

## CC(=O)Oc1ccc(CC2N=C(c3ccccc3)OC2=O)cc1 (stereo unspecified)
[15]
  T/C: 87 % of control
[3]
  T/C: 91 % of control

## CCCCCCCCCCNCCS
endpoint: mean survival time, dose: 5.0 mg/kg/injection, schedule: Q01DX009 (ip), vehicle: saline with Tween-80
  T/C: 104 % of control
endpoint: mean survival time, dose: 20.0 mg/kg/injection, schedule: Q01DX009 (ip), vehicle: saline with Tween-80
  T/C: 93 % of control

## CCOC(=O)C(C(=O)OCC)c1cc(NC(=O)c2ccccc2)ccc1NC(=O)c1ccccc1
[3]
  T/C: 87 % of control
[5]
  T/C: 93 % of control

## CC(C(O)c1ccc(Br)cc1)C(O)(C(F)(F)F)C(F)(F)F (stereo unspecified)
endpoint: mean survival time, dose: 100.0 mg/kg/injection, schedule: Q04DX003 (ip), vehicle: other
  T/C: 113 % of control
endpoint: mean survival time, dose: 200.0 mg/kg/injection, schedule: Q04DX003 (ip), vehicle: other
  T/C: 107 % of control
endpoint: mean survival time, dose: 400.0 mg/kg/injection, schedule: Q04DX003 (ip), vehicle: other
  T/C: 100 % of control

## O=C(O)/C=C/c1ccccc1C(=O)O
[13]
  T/C: 103 % of control
[14]
  T/C: 101 % of control
endpoint: mean survival time, dose: 400.0 mg/kg/injection, schedule: Q01DX009 (ip), vehicle: saline
  T/C: 101 % of control

## CC(C)CCCC(C)C1CCC2C3=CCC4CC(OC(=O)CCC(C)C)CCC4(C)C3CCC21C (stereo unspecified)
[9]
  T/C: 101 % of control
[10]
  T/C: 96 % of control
[11]
  T/C: 104 % of control

## COCCOCCOCCOCCOCCN
[16]
  T/C: 103 % of control
[17]
  T/C: 101 % of control
[18]
  T/C: 103 % of control

## C=CCSc1ccccn1
endpoint: mean survival time, dose: 50.0 mg/kg/injection, schedule: Q01DX001 (ip), vehicle: carboxymethylcellulose (CMC)
  T/C: 94 % of control
endpoint: mean survival time, dose: 100.0 mg/kg/injection, schedule: Q01DX001 (ip), vehicle: carboxymethylcellulose (CMC)
  T/C: 86 % of control
endpoint: mean survival time, dose: 200.0 mg/kg/injection, schedule: Q01DX001 (ip), vehicle: carboxymethylcellulose (CMC)
  T/C: 88 % of control
endpoint: mean survival time, dose: 400.0 mg/kg/injection, schedule: Q01DX001 (ip), vehicle: carboxymethylcellulose (CMC)
  T/C: 94 % of control

## Nc1nc(N)nc(N)n1
[3]
  T/C: 95 % of control
[9]
  T/C: 97 % of control
[4]
  T/C: 94 % of control
[10]
  T/C: 105 % of control
[5]
  T/C: 95 % of control
[11]
  T/C: 97 % of control
endpoint: mean survival time, dose: 800.0 mg/kg/injection, schedule: Q01DX009 (ip), vehicle: saline with Tween-80
  T/C: 90 % of control

## CC1=Nc2cc(Cl)c(Cl)cc2N(C)/C1=C/C1=C(Cl)C(=O)c2cc3c(Cl)ccc(Cl)c3cc2C1=O
[9]
  T/C: 94 % of control
[10]
  T/C: 97 % of control

## CCCNCC(=O)O[C@]1(CC)C(=O)OCc2c1cc1n(c2=O)Cc2cc3ccccc3nc2-1
endpoint: median survival time, dose: 7.5 mg/kg/injection, schedule: Q04DX002 (ip), vehicle: saline
  T/C: 112 % of control
endpoint: median survival time, dose: 30.0 mg/kg/injection, schedule: Q04DX002 (ip), vehicle: saline
  T/C: 159 % of control and 204 % of control
endpoint: median survival time, dose: 60.0 mg/kg/injection, schedule: Q04DX002 (ip), vehicle: saline
  T/C: 116 % of control and 106 % of control

## CC(=O)N(C)[Si](C)(C)C
[6]
  T/C: 96 % of control
[1]
  T/C: 98 % of control
[16]
  T/C: 98 % of control
[7]
  T/C: 100 % of control
[2]
  T/C: 96 % of control
[17]
  T/C: 97 % of control
[8]
  T/C: 106 % of control
endpoint: mean survival time, dose: 400.0 mg/kg/injection, schedule: Q01DX009 (ip), vehicle: saline sonified
  T/C: 96 % of control
[18]
  T/C: 101 % of control

## COP(=O)(O)OCC1OC(n2cnc3c(N)ncnc32)C(O)C1O (stereo unspecified)
endpoint: mean survival time, dose: 12.5 mg/kg/injection, schedule: Q01DX005 (ip), vehicle: distilled water + Tween-80
  T/C: 96 % of control
endpoint: mean survival time, dose: 25.0 mg/kg/injection, schedule: Q01DX005 (ip), vehicle: distilled water + Tween-80
  T/C: 102 % of control
endpoint: mean survival time, dose: 50.0 mg/kg/injection, schedule: Q01DX005 (ip), vehicle: distilled water + Tween-80
  T/C: 106 % of control
endpoint: mean survival time, dose: 100.0 mg/kg/injection, schedule: Q01DX005 (ip), vehicle: distilled water + Tween-80
  T/C: 100 % of control
endpoint: mean survival time, dose: 200.0 mg/kg/injection, schedule: Q01DX005 (ip), vehicle: distilled water + Tween-80
  T/C: 106 % of control

## ClC1CCC(Cl)C2CCC3C(Cl)CCC1[S+]23 (stereo unspecified)
endpoint: mean survival time, dose: 3.12 mg/kg/injection, schedule: Q01DX009 (ip), vehicle: Klucel (hydroxypropylcellulose) (HPC)
  T/C: 104 % of control
endpoint: mean survival time, dose: 6.25 mg/kg/injection, schedule: Q01DX009 (ip), vehicle: Klucel (hydroxypropylcellulose) (HPC)
  T/C: 97 % of control
endpoint: mean survival time, dose: 12.5 mg/kg/injection, schedule: Q01DX009 (ip), vehicle: Klucel (hydroxypropylcellulose) (HPC)
  T/C: 95 % of control

## Cc1cccc(C(=O)C(=O)c2cccc(C)c2C)c1C
endpoint: mean survival time, dose: 75.0 mg/kg/injection, schedule: Q01DX001 (ip), vehicle: other
  T/C: 93 % of control
endpoint: mean survival time, dose: 150.0 mg/kg/injection, schedule: Q01DX001 (ip), vehicle: other
  T/C: 93 % of control
endpoint: mean survival time, dose: 300.0 mg/kg/injection, schedule: Q01DX001 (ip), vehicle: other
  T/C: 100 % of control

## NC(CSC1(c2ccc(Cl)cc2)c2ccccc2-c2ccccc21)C(=O)O (stereo unspecified)
endpoint: mean survival time, dose: 25.0 mg/kg/injection, schedule: Q01DX009 (ip), vehicle: saline
  T/C: 100 % of control
[12]
  T/C: 96 % of control
[13]
  T/C: 96 % of control

## OCCN=Cc1c[nH]c2ccccc12
[6]
  T/C: 95 % of control
[7]
  T/C: 106 % of control
[8]
  T/C: 103 % of control

## Nc1cccc2nc3ccccc3cc12
[3]
  T/C: 93 % of control
[9]
  T/C: 92 % of control
[4]
  T/C: 95 % of control
[10]
  T/C: 94 % of control
[11]
  T/C: 91 % of control

From PubChem BioAssay AID256 (DTP/NCI, 2004)
